Data as given in ChEMBL document CHEMBL4346735, “Discovery and pharmacological evaluation of indole derivatives as potent and selective RORγt inverse agonist for multiple autoimmune conditions” (Bioorg Med Chem Lett, 2019).
Active and inactive are the calls of the source. The rule behind the calls is not given here.

Tests used:
[1] = Drug metabolism in rat liver microsomes assessed as oxidation metabolic rate at 1 uM preincubated for 5 mins followed by NADPH addition after 30 mins by LC-MS/MS analysis; format: ADME, Microsome; conditions: 0.5 h
[2] = Oral bioavailability in Balb/c mouse at 10 mg/kg administered via gavage by LC-MS/MS analysis; format: ADME, organism-based; conditions: in vivo
[3] = molecular target: T1, Nuclear receptor ROR-gamma (Homo sapiens, UniProt P51449); assay: Inverse agonist activity at GST-tagged RORgammat LBD (unknown origin) using fluorescein-D22 co-activator peptide as substrate incubated for 1 hr by TR-FRET assay
T1 sequence (P51449 whole entry): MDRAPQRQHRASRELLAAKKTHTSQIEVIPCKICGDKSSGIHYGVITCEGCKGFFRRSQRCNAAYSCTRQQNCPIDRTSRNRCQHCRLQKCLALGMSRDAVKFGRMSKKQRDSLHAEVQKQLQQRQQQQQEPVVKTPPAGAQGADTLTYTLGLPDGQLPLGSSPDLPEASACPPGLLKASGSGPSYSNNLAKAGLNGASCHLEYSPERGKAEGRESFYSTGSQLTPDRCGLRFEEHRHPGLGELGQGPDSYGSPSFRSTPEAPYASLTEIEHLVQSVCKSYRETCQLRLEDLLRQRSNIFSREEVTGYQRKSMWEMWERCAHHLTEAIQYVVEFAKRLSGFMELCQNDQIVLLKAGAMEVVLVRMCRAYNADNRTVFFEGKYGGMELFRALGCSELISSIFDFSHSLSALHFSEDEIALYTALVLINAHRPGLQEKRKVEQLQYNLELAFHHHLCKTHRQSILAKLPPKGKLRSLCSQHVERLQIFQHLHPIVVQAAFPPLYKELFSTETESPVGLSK

[4] = AUC (0 to t) in Balb/c mouse at 3 mg/kg, iv administered as single dose by LC-MS/MS analysis; format: ADME, organism-based; conditions: in vivo
[5] = Drug metabolism in mouse liver microsomes assessed as oxidation metabolic rate at 1 uM preincubated for 5 mins followed by NADPH addition after 30 mins by LC-MS/MS analysis; format: ADME, Microsome; conditions: 0.5 h
[6] = Clearance in Balb/c mouse at 3 mg/kg, iv administered as single dose by LC-MS/MS analysis; format: ADME, organism-based; conditions: in vivo
[7] = Metabolic stability in rat hepatocytes assessed as parent compound remaining after 30 mins; format: ADME, cell-based, Hepatocyte; conditions: read-out: Stability
[8] = Half life in Balb/c mouse at 3 mg/kg, iv administered as single dose by LC-MS/MS analysis; format: ADME, organism-based; conditions: in vivo
[9] = molecular target: T1, Nuclear receptor ROR-gamma; assay: Transactivation of recombinant GAL4-DBD fused RORgammat LBD (unknown origin) expressed in HEK293T cells incubated for 18 to 24 hrs by dual-Glo luciferase assay; format: cell-based
[10] = Drug metabolism in human pooled liver microsomes assessed as oxidation metabolic rate at 1 uM preincubated for 5 mins followed by NADPH addition after 30 mins by LC-MS/MS analysis; format: ADME, Microsome; conditions: 0.5 h
[11] = Cmax in mouse at 10 mg/kg, po; format: ADME, organism-based; parameters: dose 10 mg/kg, route oral; conditions: in vivo
Mus musculus [12] = assay: Immunosuppressive activity in MOG (35 to 55 residues)/pertussis toxin-induced experimental allergic encephalomyelitis C57BL/6J mouse model assessed as IFN-gamma production of CNS infiltrating CD4+ Th1 cells at 10 mg/kg, po qd by intracellular staining method; format: functional, organism-based
[13] = Metabolic stability in rat liver microsomes assessed as parent compound remaining at 1 uM preincubated for 5 mins followed by NADPH addition after 30 mins by LC-MS/MS analysis; format: ADME, Microsome; conditions: read-out: Stability
Mus musculus [14] = assay: Immunosuppressive activity in MOG (35 to 55 residues)/pertussis toxin-induced experimental allergic encephalomyelitis C57BL/6J mouse model assessed as decrease in ratio of Th17:Th1 at 10 mg/kg, po qd by intracellular staining method; format: functional, organism-based
[15] = Tmax in mouse at 10 mg/kg, po; format: ADME, organism-based; conditions: in vivo
[16] = Metabolic stability in mouse liver microsomes assessed as parent compound remaining at 1 uM preincubated for 5 mins followed by NADPH addition after 30 mins by LC-MS/MS analysis; format: ADME, Microsome; conditions: read-out: Stability
Cytochrome P450 1A2 = molecular target: T2, Cytochrome P450 1A2 (Homo sapiens, UniProt P05177); assay: Inhibition of CYP1A2 in human liver microsomes using phenacetin as substrate preincubated for 5 mins followed by NADPH addition measured after 10 mins by LC-MS/MS analysis
T2 sequence (P05177 whole entry): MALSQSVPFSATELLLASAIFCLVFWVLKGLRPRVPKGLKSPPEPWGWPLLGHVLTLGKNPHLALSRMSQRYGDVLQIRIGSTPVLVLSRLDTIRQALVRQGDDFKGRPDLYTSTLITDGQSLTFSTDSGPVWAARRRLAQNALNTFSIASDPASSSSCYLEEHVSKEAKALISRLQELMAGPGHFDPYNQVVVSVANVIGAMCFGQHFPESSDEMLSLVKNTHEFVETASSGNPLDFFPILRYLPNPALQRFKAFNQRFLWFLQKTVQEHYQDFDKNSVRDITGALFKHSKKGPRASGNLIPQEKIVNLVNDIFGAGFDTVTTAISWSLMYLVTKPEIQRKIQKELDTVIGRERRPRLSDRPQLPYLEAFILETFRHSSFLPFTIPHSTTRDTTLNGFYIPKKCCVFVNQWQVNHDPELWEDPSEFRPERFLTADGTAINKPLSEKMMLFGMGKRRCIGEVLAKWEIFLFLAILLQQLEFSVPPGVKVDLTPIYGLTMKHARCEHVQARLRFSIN

Cytochrome P450 2C19 = Cytochrome P450 2C19 (Homo sapiens, UniProt P33261); assay: Inhibition of CYP2C19 in human liver microsomes using (S)-mephenytoin as substrate preincubated for 5 mins followed by NADPH addition measured after 40 mins by LC-MS/MS analysis
Chain of Cytochrome P450 2C19 (P33261 whole entry): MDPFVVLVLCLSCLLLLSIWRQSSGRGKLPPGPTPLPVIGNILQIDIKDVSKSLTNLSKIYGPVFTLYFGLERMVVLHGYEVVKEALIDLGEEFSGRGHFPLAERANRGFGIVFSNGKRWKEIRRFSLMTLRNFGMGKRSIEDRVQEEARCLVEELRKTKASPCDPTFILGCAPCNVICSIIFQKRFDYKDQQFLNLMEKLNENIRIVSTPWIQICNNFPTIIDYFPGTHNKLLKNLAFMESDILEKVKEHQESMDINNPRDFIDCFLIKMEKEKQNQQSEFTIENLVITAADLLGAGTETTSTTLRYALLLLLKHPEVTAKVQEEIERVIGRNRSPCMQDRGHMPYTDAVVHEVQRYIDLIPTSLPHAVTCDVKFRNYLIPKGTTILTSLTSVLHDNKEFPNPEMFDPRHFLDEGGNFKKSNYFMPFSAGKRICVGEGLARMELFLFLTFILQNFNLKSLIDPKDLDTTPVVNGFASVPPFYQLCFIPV

[17] = Metabolic stability in human liver microsomes assessed as parent compound remaining at 1 uM preincubated for 5 mins followed by NADPH addition after 30 mins by LC-MS/MS analysis; format: ADME, Microsome; conditions: read-out: Stability
Mus musculus [18] = assay: Immunosuppressive activity in MOG (35 to 55 residues)/pertussis toxin-induced experimental allergic encephalomyelitis C57BL/6J mouse model assessed as reduction in disease severity score at 10 mg/kg, po qd measured at day 21 relative to dexamethasone; format: functional; conditions: 504 h
[19] = Oral bioavailability in mouse at 10 mg/kg; format: ADME, organism-based; conditions: in vivo
[20] = Half life in mouse at 3 mg/kg, iv; format: ADME, organism-based; conditions: in vivo
[21] = AUC (0 to 24 hrs) in mouse at 10 mg/kg, po; format: ADME, organism-based; parameters: dose 10 mg/kg, time < 24 hr, route oral; conditions: in vivo, 24 h
Mus musculus [22] = species: Mus musculus; conditions: C57BL/6J, at 10 mg/kg
Description: Immunosuppressive activity in MOG (35 to 55 residues)/pertussis toxin-induced experimental allergic encephalomyelitis C57BL/6J mouse model assessed as reduction in IL-17 production of CNS infiltrating CD4+ Th17 cells at 10 mg/kg, po qd by intracellular staining method

Cytochrome P450 3A4 = Cytochrome P450 3A4 (Homo sapiens, UniProt P08684); assay: Inhibition of CYP3A4 in human liver microsomes using testosterone as substrate preincubated for 5 mins followed by NADPH addition measured after 10 mins by LC-MS/MS analysis
Chain of Cytochrome P450 3A4 (P08684 whole entry): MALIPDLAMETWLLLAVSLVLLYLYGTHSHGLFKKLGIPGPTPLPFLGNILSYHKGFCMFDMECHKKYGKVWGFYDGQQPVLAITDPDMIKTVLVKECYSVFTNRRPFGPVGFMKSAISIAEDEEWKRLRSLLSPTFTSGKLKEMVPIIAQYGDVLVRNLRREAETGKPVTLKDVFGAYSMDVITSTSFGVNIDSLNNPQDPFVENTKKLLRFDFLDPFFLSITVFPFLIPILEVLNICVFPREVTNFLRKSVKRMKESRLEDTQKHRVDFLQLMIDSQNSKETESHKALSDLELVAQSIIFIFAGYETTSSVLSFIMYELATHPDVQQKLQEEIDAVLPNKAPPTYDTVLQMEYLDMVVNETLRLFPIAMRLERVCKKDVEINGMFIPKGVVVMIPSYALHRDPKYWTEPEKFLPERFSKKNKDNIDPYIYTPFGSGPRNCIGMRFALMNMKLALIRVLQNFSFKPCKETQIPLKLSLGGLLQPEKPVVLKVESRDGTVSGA

Cytochrome P450 2C9 = Cytochrome P450 2C9 (Homo sapiens, UniProt P11712); assay: Inhibition of CYP2C9 in human liver microsomes using diclofenac as substrate preincubated for 5 mins followed by NADPH addition measured after 10 mins by LC-MS/MS analysis
Chain of Cytochrome P450 2C9 (P11712 whole entry): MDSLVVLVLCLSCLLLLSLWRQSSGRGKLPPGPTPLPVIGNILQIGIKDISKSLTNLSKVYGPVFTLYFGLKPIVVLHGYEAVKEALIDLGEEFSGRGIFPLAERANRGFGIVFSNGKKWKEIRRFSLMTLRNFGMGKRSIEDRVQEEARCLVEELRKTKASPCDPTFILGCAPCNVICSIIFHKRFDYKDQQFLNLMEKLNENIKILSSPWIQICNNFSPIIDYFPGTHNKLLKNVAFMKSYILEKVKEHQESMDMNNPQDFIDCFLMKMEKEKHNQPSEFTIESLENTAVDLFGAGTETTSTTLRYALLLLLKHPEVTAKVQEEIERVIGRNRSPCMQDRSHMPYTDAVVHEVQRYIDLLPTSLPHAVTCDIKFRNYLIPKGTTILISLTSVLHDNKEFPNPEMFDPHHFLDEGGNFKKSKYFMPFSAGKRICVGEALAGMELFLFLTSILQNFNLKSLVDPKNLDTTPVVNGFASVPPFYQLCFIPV

[23] = Volume of distribution at steady state in mouse at 3 mg/kg, iv; format: ADME, organism-based; conditions: in vivo, read-out: Vdss

Compound `O=C(O)c1ccc(-n2nc(C(=O)c3c(Cl)cccc3Cl)c3ccccc32)cc1` has a Drug metabolism [1] of 0.18 nmol/min/mg, a bioavailability [2] of 29% and an IC50 [3] of 0.0038 µM. For the same compound, the AUC(0-t) [4] was 5.9 µM·h, the Drug metabolism [5] was < 0.04 nmol/min/mg and the clearance [6] was 19.6 mL/min/kg. It also gave a remaining at 0.5 h [7] of 17%, a half-life [8] of 1.4 h and an IC50 [9] of 0.029 µM. For the same compound, the Drug metabolism [10] was 0.07 nmol/min/mg.

In the case of `CCS(=O)(=O)c1ccc(CC(=O)Nc2cc(Cl)c(-c3ccccc3OC(F)(F)F)c(Cl)c2)cc1`, the Cmax [11] is reported as 3000 nM, the inhibition (Mus musculus [12]) is reported as “inactive” and the remaining at 0.5 h, 1 µM [13] is reported as 65%. For the same compound, the inhibition (Mus musculus [14]) was “Active”, the Tmax [15] was 2 h and the remaining at 0.5 h, 1 µM [16] was 70%. The IC50 (Cytochrome P450 1A2) was > 50 µM, the IC50 (Cytochrome P450 2C19) was 9.6 µM and the remaining at 0.5 h, 1 µM [17] was 100%. The inhibition in vivo at 10 mg/kg (Mus musculus [18]) was 24%, the F [19] was 79% and the half-life [20] was 10.7 h. For the same compound, the AUC [21] was 22.3 µM·h, the inhibition (Mus musculus [22]) was “Active” and the IC50 (Cytochrome P450 3A4) was > 50 µM. The IC50 (Cytochrome P450 2C9) was 2.1 µM and the Vd [23] was 3.5 L/kg.
